According to ChEMBL document CHEMBL1131701, “Synthesis and evaluation of potent and selective c-GMP phosphodiesterase inhibitors” (Bioorg Med Chem Lett, 1999):

How the values were obtained:
[1] = biological target: T1, Phosphodiesterase 3 (Homo sapiens, UniProt Q14432+Q13370); test: Optimum inhibitory concentration required to inhibit […] (PDE3); type: protein assay
[2] = biological target: T2, cGMP-specific 3',5'-cyclic phosphodiesterase (Bos taurus, UniProt Q28156); test: Optimum inhibitory concentration required to inhibit c-GMP specific Phosphodiesterase 5 (PDE5) of bovine lung
[3] = biological target: Dual specificity calcium/calmodulin-dependent 3',5'-cyclic nucleotide phosphodiesterase 1A (Bos taurus, UniProt P14100); test: Optimum inhibitory concentration required to inhibit c-GMP specific phosphodiesterase 1 (PDE1) of bovine aorta
Dual specificity calcium/calmodulin-dependent 3',5'-cyclic nucleotide phosphodiesterase 1A, sequence (P14100 whole entry): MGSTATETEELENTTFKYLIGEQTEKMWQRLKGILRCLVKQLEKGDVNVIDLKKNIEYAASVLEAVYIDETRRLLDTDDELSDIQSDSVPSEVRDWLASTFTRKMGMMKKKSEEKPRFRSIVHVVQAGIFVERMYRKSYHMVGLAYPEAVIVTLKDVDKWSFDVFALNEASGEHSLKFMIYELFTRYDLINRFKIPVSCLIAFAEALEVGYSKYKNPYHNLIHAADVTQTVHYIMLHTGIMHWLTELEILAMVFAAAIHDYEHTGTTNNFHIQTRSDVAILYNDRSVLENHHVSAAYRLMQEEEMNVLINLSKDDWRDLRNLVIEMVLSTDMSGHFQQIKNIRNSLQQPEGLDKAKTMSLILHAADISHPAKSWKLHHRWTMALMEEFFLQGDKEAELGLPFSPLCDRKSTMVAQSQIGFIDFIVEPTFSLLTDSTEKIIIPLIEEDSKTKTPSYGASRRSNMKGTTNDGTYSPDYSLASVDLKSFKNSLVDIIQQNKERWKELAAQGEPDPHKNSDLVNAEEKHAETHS

[4] = biological target: T1, Phosphodiesterase 3; test: Inhibition of cGMP-inhibited phosphodiesterase 3 (PDE3); type: protein assay
[5] = biological target: T2, cGMP-specific 3',5'-cyclic phosphodiesterase; test: Inhibition of c-GMP specific phosphodiesterase PDE5 of bovine lung

With `CCCC(CCC)c1nc2c([nH]1)N1C(=N[C@@H]3CCC[C@@H]31)N(C)C2=O` the IC50 [1] was 80000 nM, the IC50 [2] was 150 nM and the IC50 [3] was 60 nM.

`CCc1nc2c([nH]1)N1C(=N[C@@H]3CCC[C@@H]31)N(C)C2=O` showed an IC50 [1] of 150000 nM, an IC50 [2] of 1200 nM and an IC50 [3] of 295 nM.

With `CCCCCCc1nc2c([nH]1)N1CC3(CCCC3)N=C1N(C)C2=O` the IC50 [1] was 15000 nM, the IC50 [2] was 11 nM and the IC50 [3] was 14 nM.

In the case of `CCCc1nc2c([nH]1)N1C(=N[C@@H]3CCC[C@@H]31)N(C)C2=O`, the IC50 [1] is reported as 80000 nM and the IC50 [3] is reported as 350 nM.

Work on `CCCCc1nc2c([nH]1)N1C(=N[C@@H]3CCC[C@@H]31)N(C)C2=O` yielded an IC50 [1] of 38000 nM, an IC50 [2] of 140 nM and an IC50 [3] of 110 nM.

`CCCCCCc1nc2c([nH]1)N1C(=N[C@@H]3CCC[C@@H]31)N(C)C2=O` gave an IC50 [1] of 12000 nM and an IC50 [3] of 36 nM.

With `CC(C)CCCc1nc2c([nH]1)N1C[C@@H](C(C)C)N=C1N(C)C2=O` the IC50 [1] was 65000 nM, the IC50 [2] was 6 nM and the IC50 [3] was 12 nM.

For `Cc1nc2c([nH]1)C(=O)N(C)C1=N[C@@H]3CCC[C@@H]3N12`, the IC50 [1] was > 300000 nM and the IC50 [3] was 1250 nM.

`CCCCCCc1nc2c([nH]1)N1C[C@@H](C(C)C)N=C1N(C)C2=O` gave an IC50 [1] of 18000 nM, an IC50 [2] of 5 nM and an IC50 [3] of 25 nM.

For `CC(C)CCc1nc2c([nH]1)N1C[C@@H](C(C)C)N=C1N(C)C2=O`, the IC50 [1] was 40000 nM, the IC50 [2] was 22 nM and the IC50 [3] was 15 nM.

`CC(C)CCCc1nc2c([nH]1)N1C(=N[C@@H]3CCC[C@@H]31)N(C)C2=O` showed an IC50 [1] of 35000 nM, an IC50 [2] of 10 nM and an IC50 [3] of 6 nM.

With `CCCCCc1nc2c([nH]1)N1C(=N[C@@H]3CCC[C@@H]31)N(C)C2=O` the IC50 [1] was 20000 nM, the IC50 [2] was 40 nM and the IC50 [3] was 31 nM.

With `CCCCCCCc1nc2c([nH]1)N1C(=N[C@@H]3CCC[C@@H]31)N(C)C2=O` the IC50 [1] was 7000 nM, the IC50 [2] was 30 nM and the IC50 [3] was 160 nM.

In the case of `CC(C)CCc1nc2c([nH]1)N1C(=N[C@@H]3CCC[C@@H]31)N(C)C2=O`, the IC50 [1] is reported as 15000 nM and the IC50 [3] is reported as 14 nM.

Work on `CCCCCCCCc1nc2c([nH]1)N1C(=N[C@@H]3CCC[C@@H]31)N(C)C2=O` yielded an IC50 [4] of 10000 nM, an IC50 [5] of 14 nM and an IC50 [3] of 33 nM.

`CCCCCCc1nc2c([nH]1)N1CC(C)(C)N=C1N(C)C2=O` showed an IC50 [1] of 28000 nM, an IC50 [2] of 8 nM and an IC50 [3] of 25 nM.

For `CCC(CC)c1nc2c([nH]1)N1C(=N[C@@H]3CCC[C@@H]31)N(C)C2=O`, the IC50 [1] was 150000 nM, the IC50 [2] was 1400 nM and the IC50 [3] was 150 nM.
